Source: patent publication US12691084B2, “Pharmaceutical composition for preventing or treating bone diseases” (INDUSTRY FOUNDATION OF CHONNAM NATIONAL UNIVERSITY, priority 2019, dated 2026)

Tests used:
CYP2D6 = CYP2D6 (Homo sapiens, UniProt P10635); assay: CYP450 drug metabolism inhibition, 2D6; assay type: in vitro ADME; conditions: criterion remaining activity >50%
Procedure: (§1) In order to analyze the drug metabolism of PMSA compound, ADME evaluation was requested to the Daegu-Gyeongbuk Advanced Medical industry Promotion Foundation (DGMIF). Metabolic stability of drugs using liver microsomes (microsomal stability), drug metabolism inhibitory ability by five CYP450 enzymes, plasma metabolism (plasma stability), plasma protein binding, and intestinal permeability of drugs (PAMPA, parallel artificial membrane permeability assay) were analyzed. […] Further, it was confirmed that the permeability resistance was excellent (see Table 3 below). On the other hand, for one of PMSA derivatives, that is, 2-(N-(3,5-dimethylphenyl)methylsulfinamido)-N-(2 (phenylthio)phenyl)propanamide (#25-D5), intestinal permeability of the drug (PAMPA) was not measured.

CYP2C9 = CYP2C9 (Homo sapiens, UniProt P11712); assay: CYP450 drug metabolism inhibition, 2C9; assay type: in vitro ADME; conditions: criterion remaining activity >50%
Procedure: as §1

plasma proteins = assay: Plasma protein binding (PPB); assay type: in vitro ADME, Human; conditions: for binding with plasma proteins: conclusion from ADME evaluation
Procedure: as §1

CYP2C19 = CYP2C19 (Homo sapiens, UniProt P33261); assay: CYP450 drug metabolism inhibition, 2C19; assay type: in vitro ADME; conditions: criterion remaining activity >50%
Procedure: as §1

Microsomal stability (H) = assay type: in vitro ADME, human; conditions: H of H/M; criterion >60%
Procedure: as §1

CYP3A4 = CYP3A4 (Homo sapiens, UniProt P08684); assay: CYP450 drug metabolism inhibition, 3A4; assay type: in vitro ADME; conditions: criterion remaining activity >50%
Procedure: as §1

[1] = ADME evaluation (DGMIF), overall conclusion on toxicity; assay type: in vitro ADME; conditions: conclusion from ADME evaluation
Procedure: as §1

Plasma stability = assay type: in vitro ADME
Procedure: as §1

Microsomal stability (M) = assay type: in vitro ADME, mouse; conditions: M of H/M; criterion >60%
Procedure: as §1

CYP1A2 = biological target: T1, CYP1A2 (Homo sapiens, UniProt P05177); assay: CYP450 drug metabolism inhibition, 1A2; assay type: in vitro ADME; conditions: criterion remaining activity >50%
T1 sequence (P05177 1-516): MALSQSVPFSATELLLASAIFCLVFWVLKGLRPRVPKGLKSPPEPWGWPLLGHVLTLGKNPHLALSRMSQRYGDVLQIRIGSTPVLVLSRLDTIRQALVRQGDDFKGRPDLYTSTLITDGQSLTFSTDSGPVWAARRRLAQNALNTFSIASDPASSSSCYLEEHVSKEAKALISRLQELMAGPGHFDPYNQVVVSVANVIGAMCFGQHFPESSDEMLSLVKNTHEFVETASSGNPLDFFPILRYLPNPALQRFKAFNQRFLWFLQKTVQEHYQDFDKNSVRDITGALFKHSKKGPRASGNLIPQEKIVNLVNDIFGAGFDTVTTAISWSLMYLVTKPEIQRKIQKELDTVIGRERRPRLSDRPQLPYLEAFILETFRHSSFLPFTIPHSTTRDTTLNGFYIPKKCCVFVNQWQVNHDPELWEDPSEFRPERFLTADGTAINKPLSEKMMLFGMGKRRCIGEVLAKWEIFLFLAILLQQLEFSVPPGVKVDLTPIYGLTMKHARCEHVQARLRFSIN
Procedure: as §1

mouse bone marrow cells = assay: Bone resorption assay on calcium phosphate coated plate; assay type: cell-based; conditions: 6 days; for bone resorption ability: compared to Ctrl
Procedure: Bone resorption ability was confirmed using a bone resorption assay kit (Cosmo Rio, CSR-BRA). 2.5×10^4 mouse bone marrow cells per well were put into a 48-well plate coated with calcium phosphate, followed by treating the cells with PMSA to perform differentiation for 6 days. After 6 days, a fluorescence absorbance was measured with the culture medium to confirm the bone absorption ability. Further, decomposition degree of calcium phosphate was photographed a microscope to confirm the bone resorption ability. […] In FIG. 4, BMMs refer to monocytes that are not differentiated osteoclasts.
Further, the bone resorption ability was confirmed using a bone resorption assay kit (Cosmo Bio, CSR-BRA). 2.5×10^4 mouse bone marrow cells per well were put into a 48-well plate coated with calcium phosphate, and were differentiated for 6 days while being treated with PSTP-3,5-Me. After 6 days, the fluorescence absorbance was measured with the culture medium to confirm the bone absorption ability.

[2] = PAMPA, parallel artificial membrane permeability assay; assay type: in vitro ADME; conditions: for Papp: PAMPA, criterion >40, read-out: PAMPA (>40) Pe; for permeability resistance: conclusion from ADME evaluation
Procedure: as §1

[3] = tested on: monocytes isolated from mouse bone marrow treated with RANKL; assay: Osteoclast differentiation inhibition, TRAP staining and assay; assay type: cell-based; conditions: 10 μM; RANKL; TRAP staining, Image J
Procedure: Macrophages were isolated from bone marrow of 8-week old C57BL/6J mice, and seeded on a 96-well plate in an amount of 1×10^4 cells per well, followed by treating the cells with osteoclast differentiation factors M-CSF and RANKL at 30 ng/ml and 50 ng/ml, respectively. At the same time, the compounds were used for treatment, followed by culturing the cells for 3 to 4 days. Thereafter, differentiation influence was evaluated through TRAP staining and cell counting. Specific experimental procedures and results are as follows.
The bone marrow of a 10-week-old female mouse was isolated from the hip bone, femur and tibia, and incubated in α-MEM medium (Gibco, 12561-056, 10% fetal bovine serum, 1% penicillin/streptomycin) containing macrophage colony stimulating factor (M-CSF, PeproTech, 315-02, 30 ng/ml) for […] so as to isolate only monocytes. The isolated monocytes were treated with receptor activator of nuclear factor kappa B ligand (RANKL, PeproTech, 315-11, 50 ng/ml) to induce osteoclast differentiation. When a morphology of fused multinuclear cells began to appear from day 3 after treatment with RANKL, the cells were differentiated into giant multinuclear cells for 4 to 6 days (see FIG. 1), and dead by cell apoptosis after 6 days.
During RANKL treatment, each PMSA compound was also used for treatment, followed by culturing the cells for 3 or 5 days to confirm the effects of inhibiting osteoclast differentiation.
1×10^4 monocytes isolated from mouse bone marrow were put into a 96-well plate and treated with RANKL and PMSA together to confirm the effect of each PMSA on osteoclast differentiation ability. Each PMSA was used for treatment by concentration. The activity of tartrate-resistant acid phosphatase (TRAP), which has increased expression during osteoclast differentiation, was confirmed using a TRAP activity assay kit (Cosmo Bio, PMC-AK04F-COS) (see FIG. 2).
Further, after staining, the multinuclear cells formed during osteoclast differentiation were observed under a microscope, and each well was photographed and a differentiation area ratio per total area was determined using Image J software. […] Specifically, at 10 μM concentration, cells were differentiated into osteoclasts by 30% when using #25 (PMSA-3-Ac), similarly, 74% using #25-C (PMSA-Ph), 63% using #25-N (PMSA-PhN), 41% using #25-PhO (PMSA-O), and only 1% using #25-D12 (PMSA-2-OMe-5-Cl), respectively. […]

CYP2C19, sequence (P33261 whole entry): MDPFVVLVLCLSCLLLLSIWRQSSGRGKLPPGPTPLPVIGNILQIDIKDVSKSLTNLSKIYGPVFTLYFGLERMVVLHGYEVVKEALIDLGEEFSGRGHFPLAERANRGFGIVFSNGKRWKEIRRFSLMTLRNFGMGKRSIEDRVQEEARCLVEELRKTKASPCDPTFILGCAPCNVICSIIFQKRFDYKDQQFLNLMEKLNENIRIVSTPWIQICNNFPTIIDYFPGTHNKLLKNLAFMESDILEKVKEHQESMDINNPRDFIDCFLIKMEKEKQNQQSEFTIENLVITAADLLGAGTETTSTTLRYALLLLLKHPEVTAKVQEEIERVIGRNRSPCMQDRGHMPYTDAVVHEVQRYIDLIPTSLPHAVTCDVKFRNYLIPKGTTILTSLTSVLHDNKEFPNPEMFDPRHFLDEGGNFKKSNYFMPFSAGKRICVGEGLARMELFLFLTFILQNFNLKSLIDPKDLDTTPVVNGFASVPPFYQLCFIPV
CYP2D6, sequence (P10635 whole entry): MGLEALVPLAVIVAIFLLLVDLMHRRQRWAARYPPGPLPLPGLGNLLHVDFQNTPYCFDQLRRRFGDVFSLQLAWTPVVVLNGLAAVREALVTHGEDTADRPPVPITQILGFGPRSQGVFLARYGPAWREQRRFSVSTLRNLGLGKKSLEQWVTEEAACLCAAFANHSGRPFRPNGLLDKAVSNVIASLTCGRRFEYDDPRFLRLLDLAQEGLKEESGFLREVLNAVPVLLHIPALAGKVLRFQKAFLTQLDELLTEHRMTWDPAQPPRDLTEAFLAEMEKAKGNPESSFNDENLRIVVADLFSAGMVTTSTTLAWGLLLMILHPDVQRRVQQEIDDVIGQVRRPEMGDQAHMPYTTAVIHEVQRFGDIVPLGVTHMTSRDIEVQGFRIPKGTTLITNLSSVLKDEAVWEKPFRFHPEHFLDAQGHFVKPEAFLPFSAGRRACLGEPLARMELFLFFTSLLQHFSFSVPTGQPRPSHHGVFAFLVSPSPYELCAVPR
CYP2C9, sequence (P11712 whole entry): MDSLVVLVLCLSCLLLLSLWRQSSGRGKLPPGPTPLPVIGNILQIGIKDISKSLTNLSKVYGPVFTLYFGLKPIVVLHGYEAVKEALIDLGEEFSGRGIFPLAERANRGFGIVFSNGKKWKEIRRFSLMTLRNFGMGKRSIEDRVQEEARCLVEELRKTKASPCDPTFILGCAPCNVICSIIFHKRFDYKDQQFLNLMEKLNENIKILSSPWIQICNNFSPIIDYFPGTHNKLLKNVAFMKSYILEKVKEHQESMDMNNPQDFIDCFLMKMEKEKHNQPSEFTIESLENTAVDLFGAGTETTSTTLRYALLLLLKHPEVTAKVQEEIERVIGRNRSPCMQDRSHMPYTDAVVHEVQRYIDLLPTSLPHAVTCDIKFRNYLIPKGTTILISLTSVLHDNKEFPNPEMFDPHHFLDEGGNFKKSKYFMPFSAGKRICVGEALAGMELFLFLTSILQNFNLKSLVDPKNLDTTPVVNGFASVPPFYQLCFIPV
CYP3A4, sequence (P08684 whole entry): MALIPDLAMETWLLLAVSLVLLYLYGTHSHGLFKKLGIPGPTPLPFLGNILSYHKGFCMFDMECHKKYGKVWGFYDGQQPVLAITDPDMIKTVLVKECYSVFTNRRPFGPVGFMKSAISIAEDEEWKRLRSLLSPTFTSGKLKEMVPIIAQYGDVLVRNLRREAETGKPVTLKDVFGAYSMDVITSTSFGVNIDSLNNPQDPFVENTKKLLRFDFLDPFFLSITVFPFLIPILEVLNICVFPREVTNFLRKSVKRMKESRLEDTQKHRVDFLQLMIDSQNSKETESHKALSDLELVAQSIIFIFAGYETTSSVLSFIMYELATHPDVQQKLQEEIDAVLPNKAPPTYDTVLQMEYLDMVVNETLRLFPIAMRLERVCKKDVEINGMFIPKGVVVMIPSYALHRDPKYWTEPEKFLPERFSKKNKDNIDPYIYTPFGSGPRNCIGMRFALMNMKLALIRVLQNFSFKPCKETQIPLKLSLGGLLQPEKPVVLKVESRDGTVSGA

| CYP 2D6 remaining activity (CYP2D6) | CYP 2C9 remaining activity (CYP2C9) | PPB Human (%, bound) (plasma proteins) | binding with plasma proteins (plasma proteins) | CYP 2C19 remaining activity (CYP2C19) | Microsomal stability (>60%) H (Microsomal stability (H)) | CYP 3A4 remaining activity (CYP3A4) | Plasma S Human 30 min (% Remaining) (Plasma stability) | Plasma S Human 120 min (% Remaining) (Plasma stability) | Microsomal stability (>60%) M (Microsomal stability (M)) | CYP 1A2 remaining activity (CYP1A2) | Papp [2] | permeability resistance [2] | SMILES | toxicity [1] | bone resorption ability (mouse bone marrow cells) | cells differentiated into osteoclasts (differentiation area ratio per total area) [3] | decrease in bone resorption ability (mouse bone marrow cells; compared to differentiated osteoclasts (Ctrl) not treated, fluorescence absorbance) |
| --- | --- | --- | --- | --- | --- | --- | --- | --- | --- | --- | --- | --- | --- | --- | --- | --- | --- |
| 53.1% | 49.7% | 98.4 %, bound | good | 10.4% | 12.5% | 70.1% | 94.3 % Remaining | 96.4 % Remaining | 3.1% | 100% | 66.2 ×10⁻⁶ cm/s | excellent | CC(=O)c1cccc(N(CC(=O)Nc2ccccc2Oc2ccccc2)S(C)(=O)=O)c1 [#25-O, 2-(N-(3-acetylphenyl)methylsulfonamido)-N-(2-phenoxyphenyl)acetamide] | low toxicity | slightly decreased | 41% | – |
| 18.3% | 67.2% | 97.9 %, bound | good | 6.9% | 50.6% | 72% | 100/100 % Remaining | 100/100 % Remaining | 3.7% | 96.8% | 76.6 ×10⁻⁶ cm/s | excellent | CC(=O)c1cccc(N(CC(=O)Nc2ccccc2-c2ccccc2)S(C)(=O)=O)c1 [#25-C, N-([1,1′-biphenyl]-2-yl)-2-(N-(3-acetylphenyl)methylsulfonamido)acetamide] | low toxicity | – | 74% | 13.4% |
| 12.6% | 47% | 97.9 %, bound | good | 9% | 3.3% | 43.1% | 100/100 % Remaining | 100/100 % Remaining | 4.0% | 81.6% | 47.2 ×10⁻⁶ cm/s | excellent | CC(=O)c1cccc(N(CC(=O)Nc2ccccc2Nc2ccccc2)S(C)(=O)=O)c1 [#25-N, 2-(N-(3-acetylphenyl)methylsulfonamido)-N-(2-(phenylamino)phenyl)acetamide] | low toxicity | slightly decreased | 63% | – |
